Experimental data as given in patent US20140205670A1, “STABLE SOLID PREPARATIONS” (TAKEDA PHARMACEUTICAL COMPANY LIMITED, priority 2002, published 2014).

Assay: Stability Test of Amorphous Lansoprazole R-Isomer (compatibility with basic substances, appearance change)
Type: physicochemical
Details: blending ratio A/base 1/1 (1/0 for No Addition)
Method: (1) 100 mg of amorphous lansoprazole R-isomer was weighed precisely under low humidity environment, and put in a transparent glass bottle. Subsequently, 100 mg of basic substance as a stabilizer of basic inorganic salt shown below was weighed precisely under low humidity environment, and placed in the bottle containing amorphous lansoprazole R-isomer. Then, the bottle was capped, and shaken slightly with hand to mix.
[1] magnesium carbonate MgCO3 [2] calcium carbonate CaCO3 [3] magnesium oxide MgO [4] magnesium hydroxide Mg (OH)2 [5] no basic substance (2) The prepared samples were stored under the condition of 40° C./75% RH (open) for 5 days. Color tones were named and color codes were numbered based on International Color Manual so as to estimate the appearance change of samples everyday. At the end of experiment, the stability was judged by comparing the color tone with that of the sample stored at 5° C. as initial sample. In addition, A represents amorphous lansoprazole R-isomer in Table 2.

Q: Which results are given for Cc1c(OCC(F)(F)F)ccnc1C[S@@+]([O-])c1nc2ccccc2[nH]1 [No Addition]?
A: color tone, Storage conditions initial (5° C. 5 days) (100 mg amorphous lansoprazole R-isomer (A) + 100 mg basic substance, stored at 5° C. as initial sample): pale greenish; appearance change after 40° C./75% RH 5 days compared with initial sample (5° C.) (40° C./75% RH (open), 5 days): (changed); color tone, Storage conditions 40° C./75% RH 5 days (40° C./75% RH (open), 5 days): pale yellow
